Columns and labels:
[1] = human urine; ref study BET115521; cited from earlier work
[2] = preclinical findings; cited from earlier work
[3] = Safety and tolerability in the DDI study; settings: one subject, part 1, appeared on day 6
[4] = Blood and plasma binding and permeability PBPK input parameters; settings: PBPK model parameter, fixed to observed value
[5] = Clinical DDI study part 2: plasma PK of molibresib alone and with rifampicin; settings: for AUC0‐∞ / Cmax / t1/2 / tmax: part 2 n = 14; for AUC0‐∞ / Cmax / t1/2: geometric mean (CVb%); for tmax: median (range)
[6] = Simcyp PBPK model parameter
[7] = Clinical DDI study part 1: plasma PK of molibresib alone and with itraconazole; settings: with itraconazole vs alone, dose-normalized
[8] = with rifampicin vs alone, part 2

In the case of `CCNC(=O)C[C@@H]1N=C(c2ccc(Cl)cc2)c2cc(OC)ccc2-n2c(C)nnc21` [Molibresib], the “urinary excretion of unchanged drug” value [1] is listed as “approximately 9.5 % of the total dose administered” and the “preclinical adverse effects on male reproductive organs” value [2] is listed as “adverse effects on the testes including sperm retention and disorganized spermatogenesis”.
With `CCC(C)n1ncn(-c2ccc(N3CCN(c4ccc(OCC5COC(Cn6cncn6)(c6ccc(Cl)cc6Cl)O5)cc4)CC3)cc2)c1=O` (stereo not drawn) [itraconazole] the “adverse event considered related by the investigator” value [3] was “mild elevations in liver enzymes”.
In the case of `COc1ccc2c(c1)C(c1ccc(Cl)cc1)=N[C@@H](CC(N)=O)c1nnc(C)n1-2` [GSK3529246], the “Blood:plasma ratio” value [4] is reported as 0.9, the Fu plasma ([4]; fraction unbound) is reported as 0.2 and the “increase in Cmax with rifampicin” value ([5]; part 2) is reported as 2 fold. For the same compound, the “AUC0‐∞” value ([5]; molibresib 10 mg alone) was 622 (26) ng·h/mL, the Cmax ([5]; molibresib 10 mg alone) was 49.0 (24) ng/mL and the t1/2 ([5]; molibresib 10 mg alone) was 10.0 (22) h. For the same compound, the tmax ([5]; molibresib 10 mg alone) was 2.0 (1.0‐4.1) h, the “AUC0‐∞” value ([5]; molibresib 20 mg + rifampicin) was 1140 (26) ng·h/mL and the Cmax ([5]; molibresib 20 mg + rifampicin) was 200 (24) ng/mL. The t1/2 ([5]; molibresib 20 mg + rifampicin) was 10.0 (24) h, the tmax ([5]; molibresib 20 mg + rifampicin) was 1.0 (0.53‐1.5) h and the “AUC0‐∞ Geometric Mean Ratio, Dosed Normalized (90%CI)” value [5, 8] was 0.917 (0.850‐0.989). For the same compound, the “Cmax Geometric Mean Ratio, Dosed Normalized (90%CI)” value [5, 8] was 2.04 (1.78‐2.32), the Compound type [6] was “Monoprotic base” and the “Log P” value [6] was 1.6. For the same compound, the pKb [6] was 7.36, the “AUC Observed Geometric Mean Ratio (90%CI)” value ([7]; AUC 0 to infinity) was 0.29 (0.26‐0.32) and the “Cmax Observed Geometric Mean Ratio (90%CI)” value [7] was 0.13 (0.11‐0.14).

— paper PMC7754455 (Journal of Clinical Pharmacology, 2020)
